Data published in publication PMC11578313, “Miniaturized Modular Click Chemistry‐enabled Rapid Discovery of Unique SARS‐CoV‐2 M^pro Inhibitors With Robust Potency and Drug‐like Profile” (Advanced Science, 2024).

Experiment: in vitro
Conditions: human

Cc1cncc(C(=O)N2C[C@H]3CC[C@@H](C2)N3[C@H](c2cccc(F)c2)c2cn(CCc3ccsc3)nn2)c1 [Compound C5N17B]
> 100 µM: CC50 | CC50 at 2 day (CC50 (Table 3), Calu‐3 cells) | CC50 at 2 day (CC50, Calu‐3 cells, MTT assay) | CC50 at 2 day (CC50, column 9, after the Calu-3 EC50 columns)
